Test results published in patent US3974268A, “Bone-seeking technetium-99m imidodiphosphonate complex” (priority 1975, dated 1976).

Columns and labels:
[1] = in words, stated as known; cited from earlier work
[2] = Organ distribution of 99mTc-IDP in rabbits with 85Sr administered simultaneously (Table 1); assay type: in vivo, New Zealand adult albino rabbits; settings: for % Dose/1% Body Weight, AVG BONE: mean of femur, tibia, spine, pelvis
Method: The organ distribution of the ^99m Tc imidodiphosphonate (IDP) was studied after I.V. injection of 50-200 μCi containing 0.1-0.2 mg of IDP per animal in New Zealand adult albino rabbits weighing 3.5-5 kg and compared with 10-20 μCi of ^85 Sr administered simultaneously as a biological standard. The methods of tissue assay used were those described in the Subramanian et al. references, supra. These animals were sacrificed at various time intervals from 15 min. to 24 hrs. after injection. […] A whole body image of the dog was obtained in the right lateral projection 4 hours after intravenous injection of 5 mCi of ^99m Tc-IDP using the Ohio Nuclear Model 100 area scan camera fitted with a 140 kev high sensitivity parallel hole collimator, with the data density setting of 200.
Table 1 contains biological distribution data of ^99m Tc-IDP in rabbits with ^85 Sr used simultaneously. The numbers shown in parenthesis after the time of study is the number of animals used per time interval. The values for each organ shown are the averages for each group of animals. The bone concentration shown as % dose / 1% body weight is the mean value of individual average of concentrations in four types of bone; the femur, tibia, spine and pelvis. An overall mean concentration of the four types of bone was calculated for each animal and then the average of these mean values were determined. Similarly the mean values for bone/organ ratios were calculated for each group.
In order to compensate for biologic variation, bone agents are best studied by comparing the quantitative uptake of the new compound with simultaneously administered ^85 Sr as a means of normalization. In comparing several ^99m Tc labeled agents between each other one should not only compare the whole organ uptake of individual compounds but also the ratios of their concentrations with ^85 Sr, especially so in comparing bone uptakes. Due to regional variation in bone uptake with the skeleton it is difficult to correctly estimate whole body bone uptake quantitatively. Nevertheless, the data for single whole bones (femur and tibia) is useful. […] This concentration change over serial time intervals may be due to the metabolic breakdown of the compound at the bone mineral surface with the ^99m Tc complex being more labile, while we known the biological half life of ^85 Sr is prolonged. Even at the later time intervals than 2 hours, ^99m Tc-IDP concentration in bone is at least 20-25% higher than the other Tc complexes (Table 2). The soft tissue concentrations of all these complexes are lower, especially that of the muscle, than ^85 Sr. The liver concentration is somewhat higher than ^85 Sr for some ^99m Tc complexes. This should not be a problem because the total liver concentration is relatively low.

[3] = 15 min after I.V. injection, mean of 6 rabbits
[4] = 1 hour after I.V. injection, mean of 6 rabbits
[5] = 2 hours after I.V. injection, mean of 9 rabbits
[6] = 4 hours after I.V. injection, mean of 9 rabbits
[7] = 24 hours after I.V. injection, mean of 7 rabbits

## [85Sr] [85Sr]
[1]
  biological half life: prolonged
[2]; [3]
  % Dose in Whole Organ, BLOOD: 16.1 % Dose
  % Dose in Whole Organ, KIDNEY: 1.27 % Dose
  % Dose in Whole Organ, LIVER: 2.13 % Dose
  % Dose in Whole Organ, MARROW: 0.903 % Dose
  % Dose in Whole Organ, MUSCLE: 15.6 % Dose
  % Dose in Whole Organ, URINE: 4.94 % Dose
  % Dose in Whole Organ, WHOLE FEMUR: 0.741 % Dose
  % Dose in Whole Organ, WHOLE TIBIA: 0.540 % Dose
  % Dose/1% Body Weight, BLOOD: 2.29 % Dose/1% Body Weight
  % Dose/1% Body Weight, FEMUR: 3.41 % Dose/1% Body Weight
  % Dose/1% Body Weight, KIDNEY: 2.68 % Dose/1% Body Weight
  % Dose/1% Body Weight, LG INT: 1.79 % Dose/1% Body Weight
  % Dose/1% Body Weight, LIVER: 0.692 % Dose/1% Body Weight
  % Dose/1% Body Weight, MARROW: 0.410 % Dose/1% Body Weight
  % Dose/1% Body Weight, MUSCLE: 0.363 % Dose/1% Body Weight
  % Dose/1% Body Weight, PELVIS: 5.06 % Dose/1% Body Weight
  % Dose/1% Body Weight, SM INT: 1.23 % Dose/1% Body Weight
  % Dose/1% Body Weight, SPINE: 3.76 % Dose/1% Body Weight
  % Dose/1% Body Weight, TIBIA: 3.02 % Dose/1% Body Weight
  RATIOS BONE/BLOOD: 1.71
  RATIOS BONE/MARROW: 9.84
  RATIOS BONE/MUSCLE: 10.6
[2]; 15 min after I.V. injection, 6 rabbits
  % Dose/1% Body Weight, AVG BONE: 3.82 % Dose/1% Body Weight
[2]; [4]
  % Dose in Whole Organ, BLOOD: 8.17 % Dose
  % Dose in Whole Organ, KIDNEY: 0.938 % Dose
  % Dose in Whole Organ, LIVER: 1.58 % Dose
  % Dose in Whole Organ, MARROW: 0.817 % Dose
  % Dose in Whole Organ, MUSCLE: 9.55 % Dose
  % Dose in Whole Organ, URINE: 8.96 % Dose
  % Dose in Whole Organ, WHOLE FEMUR: 1.27 % Dose
  % Dose in Whole Organ, WHOLE TIBIA: 1.03 % Dose
  % Dose/1% Body Weight, BLOOD: 1.17 % Dose/1% Body Weight
  % Dose/1% Body Weight, FEMUR: 5.23 % Dose/1% Body Weight
  % Dose/1% Body Weight, KIDNEY: 1.54 % Dose/1% Body Weight
  % Dose/1% Body Weight, LG INT: 0.961 % Dose/1% Body Weight
  % Dose/1% Body Weight, LIVER: 0.489 % Dose/1% Body Weight
  % Dose/1% Body Weight, MARROW: 0.382 % Dose/1% Body Weight
  % Dose/1% Body Weight, MUSCLE: 0.222 % Dose/1% Body Weight
  % Dose/1% Body Weight, PELVIS: 5.47 % Dose/1% Body Weight
  % Dose/1% Body Weight, SM INT: 0.654 % Dose/1% Body Weight
  % Dose/1% Body Weight, SPINE: 5.82 % Dose/1% Body Weight
  % Dose/1% Body Weight, TIBIA: 4.67 % Dose/1% Body Weight
  RATIOS BONE/BLOOD: 4.53
  RATIOS BONE/MARROW: 13.9
  RATIOS BONE/MUSCLE: 23.9
[2]; 1 hour after I.V. injection, 6 rabbits
  % Dose/1% Body Weight, AVG BONE: 5.30 % Dose/1% Body Weight
[2]; [5]
  % Dose in Whole Organ, BLOOD: 5.19 % Dose
  % Dose in Whole Organ, KIDNEY: 0.638 % Dose
  % Dose in Whole Organ, LIVER: 0.947 % Dose
  % Dose in Whole Organ, MARROW: 0.499 % Dose
  % Dose in Whole Organ, MUSCLE: 7.96 % Dose
  % Dose in Whole Organ, URINE: 16.6 % Dose
  % Dose in Whole Organ, WHOLE FEMUR: 1.67 % Dose
  % Dose in Whole Organ, WHOLE TIBIA: 1.34 % Dose
  % Dose/1% Body Weight, BLOOD: 0.742 % Dose/1% Body Weight
  % Dose/1% Body Weight, FEMUR: 6.84 % Dose/1% Body Weight
  % Dose/1% Body Weight, KIDNEY: 1.14 % Dose/1% Body Weight
  % Dose/1% Body Weight, LG INT: 0.762 % Dose/1% Body Weight
  % Dose/1% Body Weight, LIVER: 0.357 % Dose/1% Body Weight
  % Dose/1% Body Weight, MARROW: 0.227 % Dose/1% Body Weight
  % Dose/1% Body Weight, MUSCLE: 0.186 % Dose/1% Body Weight
  % Dose/1% Body Weight, PELVIS: 7.35 % Dose/1% Body Weight
  % Dose/1% Body Weight, SM INT: 0.669 % Dose/1% Body Weight
  % Dose/1% Body Weight, SPINE: 8.05 % Dose/1% Body Weight
  % Dose/1% Body Weight, TIBIA: 6.60 % Dose/1% Body Weight
  RATIOS BONE/BLOOD: 10.5
  RATIOS BONE/MARROW: 36
  RATIOS BONE/MUSCLE: 44
[2]; 2 hours after I.V. injection, 9 rabbits
  % Dose/1% Body Weight, AVG BONE: 7.21 % Dose/1% Body Weight
[2]; [6]
  % Dose in Whole Organ, BLOOD: 2.72 % Dose
  % Dose in Whole Organ, KIDNEY: 0.267 % Dose
  % Dose in Whole Organ, LIVER: 0.576 % Dose
  % Dose in Whole Organ, MARROW: 0.300 % Dose
  % Dose in Whole Organ, MUSCLE: 4.80 % Dose
  % Dose in Whole Organ, URINE: 26.2 % Dose
  % Dose in Whole Organ, WHOLE FEMUR: 1.84 % Dose
  % Dose in Whole Organ, WHOLE TIBIA: 1.57 % Dose
  % Dose/1% Body Weight, BLOOD: 0.388 % Dose/1% Body Weight
  % Dose/1% Body Weight, FEMUR: 7.87 % Dose/1% Body Weight
  % Dose/1% Body Weight, KIDNEY: 0.488 % Dose/1% Body Weight
  % Dose/1% Body Weight, LG INT: 0.421 % Dose/1% Body Weight
  % Dose/1% Body Weight, LIVER: 0.168 % Dose/1% Body Weight
  % Dose/1% Body Weight, MARROW: 0.137 % Dose/1% Body Weight
  % Dose/1% Body Weight, MUSCLE: 0.125 % Dose/1% Body Weight
  % Dose/1% Body Weight, PELVIS: 9.83 % Dose/1% Body Weight
  % Dose/1% Body Weight, SM INT: 0.300 % Dose/1% Body Weight
  % Dose/1% Body Weight, SPINE: 9.57 % Dose/1% Body Weight
  % Dose/1% Body Weight, TIBIA: 7.64 % Dose/1% Body Weight
  RATIOS BONE/BLOOD: 23.6
  RATIOS BONE/MARROW: 66.9
  RATIOS BONE/MUSCLE: 73.3
[2]; 4 hours after I.V. injection, 9 rabbits
  % Dose/1% Body Weight, AVG BONE: 9.16 % Dose/1% Body Weight
[2]; [7]
  % Dose in Whole Organ, BLOOD: 0.250 % Dose
  % Dose in Whole Organ, KIDNEY: 0.022 % Dose
  % Dose in Whole Organ, LIVER: 0.004 % Dose
  % Dose in Whole Organ, MARROW: 0.070 % Dose
  % Dose in Whole Organ, MUSCLE: 0.628 % Dose
  % Dose in Whole Organ, WHOLE FEMUR: 1.55 % Dose
  % Dose in Whole Organ, WHOLE TIBIA: 1.38 % Dose
  % Dose/1% Body Weight, BLOOD: 0.331 % Dose/1% Body Weight
  % Dose/1% Body Weight, FEMUR: 6.39 % Dose/1% Body Weight
  % Dose/1% Body Weight, KIDNEY: 0.067 % Dose/1% Body Weight
  % Dose/1% Body Weight, LG INT: 0.088 % Dose/1% Body Weight
  % Dose/1% Body Weight, LIVER: 0.016 % Dose/1% Body Weight
  % Dose/1% Body Weight, MARROW: 0.032 % Dose/1% Body Weight
  % Dose/1% Body Weight, MUSCLE: 0.015 % Dose/1% Body Weight
  % Dose/1% Body Weight, PELVIS: 8.13 % Dose/1% Body Weight
  % Dose/1% Body Weight, SM INT: 0.042 % Dose/1% Body Weight
  % Dose/1% Body Weight, SPINE: 6.96 % Dose/1% Body Weight
  % Dose/1% Body Weight, TIBIA: 6.58 % Dose/1% Body Weight
  RATIOS BONE/BLOOD: 20.9
  RATIOS BONE/MARROW: 217
  RATIOS BONE/MUSCLE: 462
[2]; 24 hours after I.V. injection, 7 rabbits
  % Dose/1% Body Weight, AVG BONE: 6.93 % Dose/1% Body Weight
